Our source for the EC50 values is US20250368625A1, “PIPERAZINES” (Grünenthal GmbH, priority 2024, published 2025).

By EC50 is commonly meant the concentration at which the effect is half-maximal.

T1 sequence (P31391 whole entry): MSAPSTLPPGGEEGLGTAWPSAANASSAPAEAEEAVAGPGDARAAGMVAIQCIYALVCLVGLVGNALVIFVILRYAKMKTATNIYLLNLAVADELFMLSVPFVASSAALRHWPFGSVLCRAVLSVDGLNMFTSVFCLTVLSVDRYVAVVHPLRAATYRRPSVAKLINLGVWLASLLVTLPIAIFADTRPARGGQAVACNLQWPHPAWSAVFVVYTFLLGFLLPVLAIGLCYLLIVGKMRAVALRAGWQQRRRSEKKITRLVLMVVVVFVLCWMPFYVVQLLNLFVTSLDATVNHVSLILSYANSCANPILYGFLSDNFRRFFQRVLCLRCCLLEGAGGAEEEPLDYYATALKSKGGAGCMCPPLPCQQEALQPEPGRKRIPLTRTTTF

The first test concerns the target T1, human SSTR4 (Homo sapiens, UniProt P31391).
T1 construct: expressed in transfected cells; host or cells: CHO-K1
Description: hSSTR4 cAMP assay (cAMP accumulation, LANCE Ultra cAMP kit, CHO-K1 human SSTR4 Gi cell line). The test is classed as cell-based. Conditions: functional agonism, forskolin 10 μM stimulated CHO-K1 human SSTR4 Gi cells, 30 min at 25° C., at least duplicate, averaged; read-out: hSSTR4 EC50. As to the method:
cAMP accumulation assay using a CHO-K1 human SSTR4 Gi cell line.
Quantification of intracellular cAMP was performed using the LANCE Ultra cAMP assay kit from Revvity according to the manufacturer's instructions. CHO-K1 human SSTR4 Gi cell were either seeded in a density of 3K cells per well into a 384 well plate and incubated at 37° C. and 5% CO2 for 18-20 h or a stock of frozen cells were defrosted and seeded in a density of 5K cells per well without any further cultivation directly prior to the assay in a total volume of 5 μL in stimulation buffer. For pre-cultured cells, medium was replaced with 5 μL stimulation buffer before the assay. Cells were then stimulated with forskolin (final concentration 10 μM) and test compound (SSTR4 agonist) in increasing concentrations in duplicates for 30 min at 25° C. After stimulation, cells were lysed by addition of 10 μL of detection buffer (provided with the kit) and cell lysates were further diluted to ensure final cAMP concentrations fitted well into the dynamic range of the test kit. 10 μL of the diluted lysates were then added to respective wells of an OptiPlate-384 microplate. Thereafter, 5 μL of 4× Eu-cAMP tracer working solution was added, followed by addition of 5 μL of ULight-anti-cAMP working solution. The plate was then incubated for 1 h at 25° C. before reading on a TR-FRET microplate instrument. Data were normalized to cAMP high (forskolin only) and low control (forskolin+100 nM SST14) before fitting to a 4-Paramter logistic function.
All data was generated according to the cAMP assay conditions described above in at least duplicate and results are averaged and rounded to two significant figures.
A general note: Changes in cAMP serve as a functional read-out for many G protein-coupled receptors.
Take `Cc1cccn2c(C(C)(C)NC(=O)C3CNCCN3Cc3ncccn3)ncc12` (racemic) [SC-001, rac-N-(2-(8-methylimidazo[1,5-a]pyridin-3-yl)propan-2-yl)-1-(pyrimidin-2-ylmethyl)piperazine-2-carboxamide]: the EC50 was 13 nM.
For `Cc1cccn2c(C(C)(C)NC(=O)[C@@H]3CNCCN3C(C)C)ncc12` (racemic) [SC-002, rac-1-isopropyl-N-(2-(8-methylimidazo[1,5-a]pyridin-3-yl)propan-2-yl)piperazine-2-carboxamide], the EC50 came out at 1.1 nM.
With `Cc1cccn2c(C(C)(C)NC(=O)C3CNCCN3Cc3ccccn3)ncc12` (racemic) [SC-003, rac-N-(2-(8-methylimidazo[1,5-a]pyridin-3-yl)propan-2-yl)-1-(pyridin-2-ylmethyl)piperazine-2-carboxamide], the EC50 was 3.3 nM.
With `Cc1cccn2c(C(C)(C)NC(=O)C3CNCCN3Cc3cccnn3)ncc12` (racemic) [SC-004, rac-N-(2-(8-methylimidazo[1,5-a]pyridin-3-yl)propan-2-yl)-1-(pyridazin-3-ylmethyl)piperazine-2-carboxamide], the EC50 amounted to 7.4 nM.
On the same count and under the same terms, with `Cc1cccn2c(C(C)(C)NC(=O)C3CNCCN3Cc3cncnc3)ncc12` (racemic) [SC-005, rac-N-(2-(8-methylimidazo[1,5-a]pyridin-3-yl)propan-2-yl)-1-(pyrimidin-5-ylmethyl)piperazine-2-carboxamide] the figure was 2.3 nM.
The same measure, in the same setting: with `Cc1cccn2c(C(C)(C)NC(=O)C3CNCCN3Cc3ccn(C)n3)ncc12` (racemic) [SC-006, rac-1-((1-methyl-1H-pyrazol-3-yl)methyl)-N-(2-(8-methylimidazo[1,5-a]pyridin-3-yl)propan-2-yl)piperazine-2-carboxamide] the figure was 3.7 nM; with `Cc1cccn2c(C(C)(C)NC(=O)[C@@H]3CNCCN3Cc3cnccn3)ncc12` (racemic) [SC-007, rac-N-(2-(8-methylimidazo[1,5-a]pyridin-3-yl)propan-2-yl)-1-(pyrazin-2-ylmethyl)piperazine-2-carboxamide], 2.2 nM.
On the same count and under the same terms, with `Cc1cccn2c(C(C)(C)NC(=O)C3CNCCN3Cc3ccncn3)ncc12` (racemic) [SC-008, rac-N-(2-(8-methylimidazo[1,5-a]pyridin-3-yl)propan-2-yl)-1-(pyrimidin-4-ylmethyl)piperazine-2-carboxamide] the figure was 2.9 nM; with `CC(=O)N1CCNCC1C(=O)NC(C)(C)c1ncc2c(C)cccn12` (racemic) [SC-009, rac-1-acetyl-N-(2-(8-methylimidazo[1,5-a]pyridin-3-yl)propan-2-yl)piperazine-2-carboxamide], 3400 nM; with `Cc1cccn2c(C(C)(C)NC(=O)C3CNCCN3C(=O)c3cnn(C)c3)ncc12` (racemic) [SC-010, rac-1-(1-methyl-1H-pyrazole-4-carbonyl)-N-(2-(8-methylimidazo[1,5-a]pyridin-3-yl)propan-2-yl)piperazine-2-carboxamide], 3500 nM.
Regarding `Cc1cccn2c(C(C)(C)NC(=O)[C@@H]3CNCCN3C(=O)C3CC(F)(F)C3)ncc12` (racemic) [SC-011, rac-1-(3,3-difluorocyclobutane-1-carbonyl)-N-(2-(8-methylimidazo[1,5-a]pyridin-3-yl)propan-2-yl)piperazine-2-carboxamide], the EC50 was found to be 1300 nM.
Same read-out and setting: with `Cc1cccn2c(C(C)(C)NC(=O)C3CNCCN3C(=O)C3CC3)ncc12` (racemic) [SC-012, rac-1-(cyclopropanecarbonyl)-N-(2-(8-methylimidazo[1,5-a]pyridin-3-yl)propan-2-yl)piperazine-2-carboxamide] the figure was 6600 nM.
With `Cc1cccn2c(C(C)(C)NC(=O)C3CNCCN3C(=O)C3COC3)ncc12` (racemic) [SC-013, rac-N-(2-(8-methylimidazo[1,5-a]pyridin-3-yl)propan-2-yl)-1-(oxetane-3-carbonyl)piperazine-2-carboxamide], the EC50 stood at 350 nM.
On to `Cc1cccn2c(C(C)(C)NC(=O)C3CNCCN3CC3COC3)ncc12` (racemic) [SC-014, rac-N-(2-(8-methylimidazo[1,5-a]pyridin-3-yl)propan-2-yl)-1-(oxetan-3-ylmethyl)piperazine-2-carboxamide], for which the EC50 turned out to be 3.1 nM.
The same measure, in the same setting: with `Cc1cccn2c(C(C)(C)NC(=O)C3CNCCN3c3ccccc3)ncc12` (racemic) [SC-093, rac-N-(2-(8-methylimidazo[1,5-a]pyridin-3-yl)propan-2-yl)-1-phenylpiperazine-2-carboxamide] the figure was 0.86 nM; with `Cc1cccn2c(C(C)(C)NC(=O)[C@@H]3CNCCN3)ncc12` [SC-015, (S)-N-(2-(8-methylimidazo[1,5-a]pyridin-3-yl)propan-2-yl)piperazine-2-carboxamide], 9.5 nM.
With `Cc1cccn2c(C(C)(C)NC(=O)[C@@H]3CNCCN3C)ncc12` [SC-016, (S)-1-methyl-N-(2-(8-methylimidazo[1,5-a]pyridin-3-yl)propan-2-yl)piperazine-2-carboxamide], the EC50 turned out to be 0.44 nM.
Still for that read-out and setting: with `Cc1cccn2c(C(C)(C)NC(=O)[C@@H]3CNCCN3CC(F)(F)F)ncc12` [SC-017, (S)-N-(2-(8-methylimidazo[1,5-a]pyridin-3-yl)propan-2-yl)-1-(2,2,2-trifluoroethyl)piperazine-2-carboxamide] the figure was 0.2 nM; with `Cc1cccn2c(C(C)(C)NC(=O)[C@@H]3CNCCN3CC(C)(C)F)ncc12` [SC-018, (S)-1-(2-fluoro-2-methylpropyl)-N-(2-(8-methylimidazo[1,5-a]pyridin-3-yl)propan-2-yl)piperazine-2-carboxamide], 1.2 nM.
For `Cc1cccn2c(C(C)(C)NC(=O)[C@@H]3CNCCN3CC(C)(F)F)ncc12` [SC-019, (S)-1-(2,2-difluoropropyl)-N-(2-(8-methylimidazo[1,5-a]pyridin-3-yl)propan-2-yl)piperazine-2-carboxamide], the EC50 turned out to be 0.58 nM.
Regarding `Cc1cccn2c(C(C)(C)NC(=O)[C@@H]3CNCCN3CC3(C(F)(F)F)CC3)ncc12` [SC-020, (S)-N-(2-(8-methylimidazo[1,5-a]pyridin-3-yl)propan-2-yl)-1-((1-(trifluoromethyl)cyclopropyl)methyl)piperazine-2-carboxamide], the EC50 is 0.27 nM.
The same measure, in the same setting: with `Cc1cccn2c(C(C)(C)NC(=O)[C@@H]3CNCCN3C3CC(F)(F)C3)ncc12` [SC-021, (S)-1-(3,3-difluorocyclobutyl)-N-(2-(8-methylimidazo[1,5-a]pyridin-3-yl)propan-2-yl)piperazine-2-carboxamide] the figure was 3.1 nM.
Consider `Cc1cccn2c(C(C)(C)NC(=O)[C@@H]3CNCCN3Cc3ccnc(C4CC4)c3)ncc12` [SC-022, (S)-1-((2-cyclopropylpyridin-4-yl)methyl)-N-(2-(8-methylimidazo[1,5-a]pyridin-3-yl)propan-2-yl)piperazine-2-carboxamide], for which the EC50 came out at 0.09 nM.
On the same count and under the same terms, to `Cc1cccn2c(C(C)(C)NC(=O)[C@@H]3CNCCN3CC(C)(C)O)ncc12` [SC-023, (S)-1-(2-hydroxy-2-methylpropyl)-N-(2-(8-methylimidazo[1,5-a]pyridin-3-yl)propan-2-yl)piperazine-2-carboxamide] belongs 9 nM; to `Cc1cccn2c(C(C)(C)NC(=O)[C@@H]3CNCCN3CC3(C)CCC(F)(F)CC3)ncc12` [SC-024, (S)-1-((4,4-difluoro-1-methylcyclohexyl)methyl)-N-(2-(8-methylimidazo[1,5-a]pyridin-3-yl)propan-2-yl)piperazine-2-carboxamide], 0.46 nM.
Still for that read-out and setting: with `Cc1cccn2c(C(C)(C)NC(=O)[C@@H]3CNCCN3Cc3cccc(C(F)(F)F)c3)ncc12` [SC-025, (S)-N-(2-(8-methylimidazo[1,5-a]pyridin-3-yl)propan-2-yl)-1-(3-(trifluoromethyl)benzyl)piperazine-2-carboxamide] the figure was 0.05 nM; with `Cc1cccn2c(C(C)(C)NC(=O)[C@@H]3CNCCN3Cc3ccccc3F)ncc12` [SC-026, (S)-1-(2-fluorobenzyl)-N-(2-(8-methylimidazo[1,5-a]pyridin-3-yl)propan-2-yl)piperazine-2-carboxamide], 0.12 nM.
Take `Cc1cccn2c(C(C)(C)NC(=O)[C@@H]3CNCCN3Cc3ccc(F)cc3)ncc12` [SC-027, (S)-1-(4-fluorobenzyl)-N-(2-(8-methylimidazo[1,5-a]pyridin-3-yl)propan-2-yl)piperazine-2-carboxamide]: the EC50 was determined as 0.08 nM.
Same read-out and setting: with `Cc1cccn2c(C(C)(C)NC(=O)[C@@H]3CNCCN3Cc3ccc(C(F)(F)F)cc3)ncc12` [SC-028, (S)-N-(2-(8-methylimidazo[1,5-a]pyridin-3-yl)propan-2-yl)-1-(4-(trifluoromethyl)benzyl)piperazine-2-carboxamide] the figure was 0.17 nM.

The test is the same for the next values; noted with them: morpholinyl matched molecular pairs (from WO 2016 075240); same cAMP assay conditions; read-out: hSSTR4 EC50 nM (Comparative Example).
On to `CC(C)(NC(=O)[C@@H]1CNCCO1)c1nnc2c(Cl)cccn12`, for which the EC50 was above 10000 nM.
